The compounds below were run against recombinant human Nav1.7 (Homo sapiens (Human), UniProt Q15858) (assay: FRET-based membrane potential assay, recombinant human sodium channel Nav1.7). Conditions: HEK293 cells stably expressing recombinant human Nav1.7; veratridine + scorpion venom depolarization; read-out: FRET-Membrane Potential Nav1.7 IC50.
Type: cell-based
Summary of the method: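 Channel activation used veratridine at its EC80, set by a dilution curve each experiment, together with Leiurus scorpion venom, added 3 min after compound. Membrane-potential ratio signals from FLIPR Tetra in HEPES-buffered HBSS were fitted to a four-parameter Hill equation for percent inhibition and IC50.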

Chain of recombinant human Nav1.7 (Q15858 whole entry): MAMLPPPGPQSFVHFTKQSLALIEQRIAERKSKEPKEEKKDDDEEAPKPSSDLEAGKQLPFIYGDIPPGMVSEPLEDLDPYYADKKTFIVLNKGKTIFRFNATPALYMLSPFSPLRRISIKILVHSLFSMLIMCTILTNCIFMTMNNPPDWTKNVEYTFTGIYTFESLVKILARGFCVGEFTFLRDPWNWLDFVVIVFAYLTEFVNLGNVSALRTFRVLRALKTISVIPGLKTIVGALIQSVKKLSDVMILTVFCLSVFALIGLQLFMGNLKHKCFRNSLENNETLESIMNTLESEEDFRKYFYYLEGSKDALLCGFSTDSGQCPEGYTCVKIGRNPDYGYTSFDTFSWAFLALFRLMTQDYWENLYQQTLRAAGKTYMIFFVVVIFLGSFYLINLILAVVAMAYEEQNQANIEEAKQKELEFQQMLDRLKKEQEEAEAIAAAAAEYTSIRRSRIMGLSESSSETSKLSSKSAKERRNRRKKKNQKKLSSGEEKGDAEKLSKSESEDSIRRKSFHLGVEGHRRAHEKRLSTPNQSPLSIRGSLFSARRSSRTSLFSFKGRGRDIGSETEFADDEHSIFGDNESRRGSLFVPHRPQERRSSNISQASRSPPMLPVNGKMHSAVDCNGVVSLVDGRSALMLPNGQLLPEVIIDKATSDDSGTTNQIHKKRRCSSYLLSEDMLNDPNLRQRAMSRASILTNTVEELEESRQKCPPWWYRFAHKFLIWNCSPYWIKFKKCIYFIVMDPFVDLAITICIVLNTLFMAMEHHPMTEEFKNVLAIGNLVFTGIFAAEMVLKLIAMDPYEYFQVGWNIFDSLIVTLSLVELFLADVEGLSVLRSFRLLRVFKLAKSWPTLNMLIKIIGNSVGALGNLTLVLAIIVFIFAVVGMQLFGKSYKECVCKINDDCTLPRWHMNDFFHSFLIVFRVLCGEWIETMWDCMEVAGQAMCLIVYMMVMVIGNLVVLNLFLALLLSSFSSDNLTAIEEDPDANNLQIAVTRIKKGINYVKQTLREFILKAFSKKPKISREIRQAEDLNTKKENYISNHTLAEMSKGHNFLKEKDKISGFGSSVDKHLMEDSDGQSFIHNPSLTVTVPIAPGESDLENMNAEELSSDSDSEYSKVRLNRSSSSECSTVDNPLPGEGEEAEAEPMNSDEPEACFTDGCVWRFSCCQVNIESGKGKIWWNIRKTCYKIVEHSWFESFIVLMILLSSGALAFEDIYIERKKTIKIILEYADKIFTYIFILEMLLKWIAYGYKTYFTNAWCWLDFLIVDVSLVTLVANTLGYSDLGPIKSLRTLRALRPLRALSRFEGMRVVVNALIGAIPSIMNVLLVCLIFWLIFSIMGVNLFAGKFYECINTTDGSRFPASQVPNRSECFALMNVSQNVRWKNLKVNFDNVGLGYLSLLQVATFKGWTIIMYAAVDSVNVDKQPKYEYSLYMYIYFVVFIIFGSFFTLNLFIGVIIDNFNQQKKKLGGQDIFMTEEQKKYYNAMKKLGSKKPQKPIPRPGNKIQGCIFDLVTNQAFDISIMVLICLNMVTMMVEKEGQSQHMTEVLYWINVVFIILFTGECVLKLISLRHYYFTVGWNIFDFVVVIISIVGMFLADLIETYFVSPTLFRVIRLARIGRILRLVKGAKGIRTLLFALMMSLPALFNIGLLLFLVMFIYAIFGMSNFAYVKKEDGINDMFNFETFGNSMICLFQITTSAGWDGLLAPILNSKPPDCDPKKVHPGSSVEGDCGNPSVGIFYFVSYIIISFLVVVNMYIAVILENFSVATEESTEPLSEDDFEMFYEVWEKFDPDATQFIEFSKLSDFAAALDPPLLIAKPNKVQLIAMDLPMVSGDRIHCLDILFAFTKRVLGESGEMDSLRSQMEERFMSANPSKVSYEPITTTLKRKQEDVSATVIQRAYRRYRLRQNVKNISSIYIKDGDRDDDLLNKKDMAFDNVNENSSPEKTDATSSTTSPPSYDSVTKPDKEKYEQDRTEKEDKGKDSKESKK

| SMILES | IC50 |
| --- | --- |
| CC1(O)CCN(C(=O)CNC(=O)c2ccc3cc(Oc4ccc(C(F)(F)F)cn4)ccc3n2)C1 (stereo not shown) [Example 561, N-[2-(3-hydroxy-3-methylpyrrolidin-1-yl)-2-oxoethyl]-6-{[5-(trifluoromethyl)pyridin-2-yl]oxy}quinoline-2-carboxamide] | 3470 nM |
| O=C(NCC(=O)N1C[C@H](O)[C@@H](O)C1)c1ccc2cc(Oc3ccc(C(F)(F)F)cn3)ccc2n1 [Example 562, N-{2-[(3S,4S)-3,4-dihydroxypyrrolidin-1-yl]-2-oxoethyl}-6-{[5-(trifluoromethyl)pyridin-2-yl]oxy}quinoline-2-carboxamide] | > 20000 nM |
| O=C(NCC(=O)N1C[C@@H](O)[C@H](O)C1)c1ccc2cc(Oc3ccc(C(F)(F)F)cn3)ccc2n1 [Example 563, N-{2-[(3R,4R)-3,4-dihydroxypyrrolidin-1-yl]-2-oxoethyl}-6-{[5-(trifluoromethyl)pyridin-2-yl]oxy}quinoline-2-carboxamide] | > 20000 nM |
| O=C(NCC(=O)N1C[C@H](O)C[C@H]1CO)c1ccc2cc(Oc3ccc(C(F)(F)F)cn3)ccc2n1 [Example 564, N-{2-[(2S,4R)-4-hydroxy-2-(hydroxymethyl)pyrrolidin-1-yl]-2-oxoethyl}-6-{[5-(trifluoromethyl)pyridin-2-yl]oxy}quinoline-2-carboxamide] | 16600 nM |
| O=C(NCC(=O)N1CCC(F)(F)C1)c1ccc2cc(Oc3ccc(C(F)(F)F)cn3)ccc2n1 [Example 565, N-[2-(3,3-difluoropyrrolidin-1-yl)-2-oxoethyl]-6-{[5-(trifluoromethyl)pyridin-2-yl]oxy}quinoline-2-carboxamide] | 3430 nM |
| O=C(NCC(=O)N1CCS(=O)(=O)C1)c1ccc2cc(Oc3ccc(C(F)(F)F)cn3)ccc2n1 [Example 568, N-[2-(1,1-dioxido-1,3-thiazolidin-3-yl)-2-oxoethyl]-6-{[5-(trifluoromethyl)pyridin-2-yl]oxy}quinoline-2-carboxamide] | 3260 nM |
| COC1CN(C(=O)CNC(=O)c2ccc3cc(Oc4ccc(C(F)(F)F)cn4)ccc3n2)C1 [Example 569, N-[2-(3-methoxyazetidin-1-yl)-2-oxoethyl]-6-{[5-(trifluoromethyl)pyridin-2-yl]oxy}quinoline-2-carboxamide] | 1210 nM |
| O=C(NCC(=O)N1CCC[C@@H]1CO)c1ccc2cc(Oc3ccc(C(F)(F)F)cn3)ccc2n1 [Example 570, N-{2-[(2R)-2-(hydroxymethyl)pyrrolidin-1-yl]-2-oxoethyl}-6-{[5-(trifluoromethyl)pyridin-2-yl]oxy}quinoline-2-carboxamide] | 977 nM |
| O=C1CCN(C(=O)CNC(=O)c2ccc3cc(Oc4ccc(C(F)(F)F)cn4)ccc3n2)C1 [Example 572, N-[2-oxo-2-(3-oxopyrrolidin-1-yl)ethyl]-6-{[5-(trifluoromethyl)pyridin-2-yl]oxy}quinoline-2-carboxamide] | 2700 nM |
| O=C(NCC(=O)N1CCC(F)C1)c1ccc2cc(Oc3ccc(C(F)(F)F)cn3)ccc2n1 (stereo not shown) [Example 573, N-[2-(3-fluoropyrrolidin-1-yl)-2-oxoethyl]-6-{[5-(trifluoromethyl)pyridin-2-yl]oxy}quinoline-2-carboxamide] | 987 nM |
| O=C(NC1CC(N2CCOCC2)C1)c1ccc2cc(Oc3ccc(C(F)(F)F)nc3)ccc2n1 (stereo not shown) [Example 574, N-[3-(morpholin-4-yl)cyclobutyl]-6-{[6-(trifluoromethyl)pyridin-3-yl]oxy}quinoline-2-carboxamide] | 295 nM |
| O=C(c1ccc2cc(Oc3ccc(C(F)F)cn3)ccc2n1)N1CC[C@@H](F)C1 [Example 575, (6-{[5-(difluoromethyl)pyridin-2-yl]oxy}quinolin-2-yl) [(3R)-3-fluoropyrrolidin-1-yl]methanone] | 12100 nM |
| O=C(c1ccc2cc(Oc3ccc(C(F)F)cn3)ccc2n1)N1CC[C@H](F)C1 [Example 576, (6-{[5-(difluoromethyl)pyridin-2-yl]oxy}quinolin-2-yl) [(3S)-3-fluoropyrrolidin-1-yl]methanone] | 10100 nM |
| CS(=O)(=O)NC(=O)c1ccc2cc(Oc3ccc(C(F)(F)F)cn3)ccc2n1 [Example 577, N-(methylsulfonyl)-6-{[5-(trifluoromethyl)pyridin-2-yl]oxy}quinoline-2-carboxamide] | 10100 nM |
| CC1(O)CC(NC(=O)c2ccc3cc(Oc4ccc(C(F)(F)F)nc4)ccc3n2)C1 (stereo not shown) [Example 578, N-(3-hydroxy-3-methylcyclobutyl)-6-{[6-(trifluoromethyl)pyridin-3-yl]oxy}quinoline-2-carboxamide] | 1070 nM |
| CC(NC(=O)c1ccc2cc(Oc3ccc(C(F)(F)F)cn3)ccc2n1)C(=O)N(C)C (stereo not shown) [Example 579, N-[1-(dimethylamino)-1-oxopropan-2-yl]-6-{[5-(trifluoromethyl)pyridin-2-yl]oxy}quinoline-2-carboxamide] | 1690 nM |
| O=C(N[C@@H]1CCNC[C@H]1F)c1ccc2cc(Oc3ccc(C(F)(F)F)cn3)ccc2n1 [Example 584, N-[(3R,4R)-3-fluoropiperidin-4-yl]-6-{[5-(trifluoromethyl)pyridin-2-yl]oxy}quinoline-2-carboxamide] | 304 nM |
| O=C(c1ccc2cc(Oc3ccc(C(F)F)cn3)ccc2n1)N1CCN[C@H](CO)C1 [Example 585, (6-{[5-(difluoromethyl)pyridin-2-yl]oxy}quinolin-2-yl) [(3S)-3-(hydroxymethyl)piperazin-1-yl]methanone] | > 20000 nM |
| CN1CCC(NC(=O)c2ccc3cc(Oc4ccc(C(F)(F)F)cn4)ccc3n2)C1=O (stereo not shown) [Example 587, N-(1-methyl-2-oxopyrrolidin-3-yl)-6-{[5-(trifluoromethyl)pyridin-2-yl]oxy}quinoline-2-carboxamide] | 1020 nM |
| COC(C)CNC(=O)c1ccc2cc(Oc3ccc(C(F)(F)F)cn3)ccc2n1 (stereo not shown) [Example 590, N-(2-methoxypropyl)-6-{[5-(trifluoromethyl)pyridin-2-yl]oxy}quinoline-2-carboxamide] | 1000 nM |
| COC1(CNC(=O)c2ccc3cc(Oc4ccc(C(F)(F)F)cn4)ccc3n2)CCC1 [Example 591, N-[(1-methoxycyclobutyl)methyl]-6-{[5-(trifluoromethyl)pyridin-2-yl]oxy}quinoline-2-carboxamide] | 737 nM |
| O=C1CC(NC(=O)c2ccc3cc(Oc4ccc(C(F)F)cn4)ccc3n2)C1 [Example 592, 6-{[5-(difluoromethyl)pyridin-2-yl]oxy}-N-(3-oxocyclobutyl)quinoline-2-carboxamide] | 3440 nM |

Same assay, conditions: read-out: FRET-Membrane Potential Nav1.7 IC50

| SMILES | IC50 |
| --- | --- |
| O=C(NCC(=O)N1CC[C@H](O)C1)c1ccc2cc(Oc3ccc(C(F)(F)F)cn3)ccc2n1 [Example 560, N-{2-[(3S)-3-hydroxypyrrolidin-1-yl]-2-oxoethyl}-6-{[5-(trifluoromethyl)pyridin-2-yl]oxy}quinoline-2-carboxamide] | 2870 nM |
| O=C(NCC(=O)N1CC(O)C1)c1ccc2cc(Oc3ccc(C(F)(F)F)cn3)ccc2n1 [Example 566, N-[2-(3-hydroxyazetidin-1-yl)-2-oxoethyl]-6-{[5-(trifluoromethyl)pyridin-2-yl]oxy}quinoline-2-carboxamide] | 2370 nM |
| CC1(O)CN(C(=O)CNC(=O)c2ccc3cc(Oc4ccc(C(F)(F)F)cn4)ccc3n2)C1 [Example 567, N-[2-(3-hydroxy-3-methylazetidin-1-yl)-2-oxoethyl]-6-{[5-(trifluoromethyl)pyridin-2-yl]oxy}quinoline-2-carboxamide] | 3280 nM |
| O=C(NCC(=O)N1CCC1)c1ccc2cc(Oc3ccc(C(F)(F)F)cn3)ccc2n1 [Example 571, N-[2-(azetidin-1-yl)-2-oxoethyl]-6-{[5-(trifluoromethyl)pyridin-2-yl]oxy}quinoline-2-carboxamide] | 448 nM |
| O=C(c1ccc2cc(Oc3ccc(C(F)(F)F)cn3)ccc2n1)N1CCC[C@@H](O)C1 [Example 581, [(3R)-3-hydroxypiperidin-1-yl](6-{[5-(trifluoromethyl)pyridin-2-yl]oxy}quinolin-2-yl)methanone] | 12600 nM |
| O=C(c1ccc2cc(Oc3ccc(C(F)(F)F)cn3)ccc2n1)N1CCC[C@H](O)C1 [Example 582, [(3S)-3-hydroxypiperidin-1-yl](6-{[5-(trifluoromethyl)pyridin-2-yl]oxy}quinolin-2-yl)methanone] | 10300 nM |
| N[C@@H]1CCN(C(=O)c2ccc3cc(Oc4ccc(C(F)(F)F)cn4)ccc3n2)C[C@H]1F [Example 583, [(3R,4R)-4-amino-3-fluoropiperidin-1-yl](6-{[5-(trifluoromethyl)pyridin-2-yl]oxy}quinolin-2-yl)methanone] | 960 nM |
| O=C(c1ccc2cc(Oc3ccc(C(F)(F)F)cn3)ccc2n1)N1CC(N2CC[C@H](F)C2)C1 [Example 586, {3-[(3S)-3-fluoropyrrolidin-1-yl]azetidin-1-yl}(6-{[5-(trifluoromethyl)pyridin-2-yl]oxy}quinolin-2-yl)methanone] | 1800 nM |
| CO[C@@H]1CCN(C(=O)c2ccc3cc(Oc4ccc(C(F)(F)F)cn4)ccc3n2)C1 [Example 588, [(3R)-3-methoxypyrrolidin-1-yl](6-{[5-(trifluoromethyl)pyridin-2-yl]oxy}quinolin-2-yl)methanone] | 3640 nM |
| CO[C@H]1CCN(C(=O)c2ccc3cc(Oc4ccc(C(F)(F)F)cn4)ccc3n2)C1 [Example 589, [(3S)-3-methoxypyrrolidin-1-yl](6-{[5-(trifluoromethyl)pyridin-2-yl]oxy}quinolin-2-yl)methanone] | 4070 nM |
| COC[C@@H]1CN(C(=O)c2ccc3cc(Oc4ccc(C(F)(F)F)cn4)ccc3n2)CCN1 [Example 593, [(3S)-3-(methoxymethyl)piperazin-1-yl](6-{[5-(trifluoromethyl)pyridin-2-yl]oxy}quinolin-2-yl)methanone] | 238 nM |
| O=C(c1ccc2cc(Oc3ccc(C(F)(F)F)cn3)ccc2n1)N1CCNC(C(F)F)C1 (stereo not shown) [Example 594, [3-(difluoromethyl)piperazin-1-yl](6-{[5-(trifluoromethyl)pyridin-2-yl]oxy}quinolin-2-yl)methanone] | 7590 nM |
